No end group written: not given here.
Assays:
MDA-MB-231 cells = experiment: Half-life of biotin-labeled peptides in living cells (Western blotting); assay type: in vitro ADME, human; settings: biotin-labeled peptide 20 µM for 2 h, then fresh medium, cells collected 0-48 h, β-actin loading control
Protocol: (§1) SDS-PAGE gel electrophoresis and Coomassie brilliant blue staining were performed to measure peptide stability. […] Cells were collected at different post-treatment time points (0, 1, 2, 4, 8, 16, 24, 36, 48 h). […] D The docking of peptide P22 (106–126) to the FOXM1 C-terminus (PDB ID 6OSW) was created by Rosetta FlexPepDock and PyMOL. Left, the interface of peptide-protein interaction, the peptide was shown in cyan, and the C-terminus of FOXM1 was shown according to its electrostatic potential. Right, hydrogen bonds are formed by residues at the interface of peptide and protein interaction. […] Streptavidin magnetic beads were added to lysates to pull down the biotin-peptides/protein complexes. […] M1-21mut was used as the control.

[1] = biological target: T1, interaction between FOXM1 and PLK1 (Homo sapiens, UniProt Q08050); experiment: Co-IP in 231-Flag-FOXM1-Ind cells; assay type: cell-based; settings: doxycycline 200 ng/mL 24 h, M1-21 10, 20 µM or TAT-106-126 20, 40, 80 µM for 6 h
T1 construct: expressed in transfected cells; host or cells: MDA-MB-231 stably infected with pLVX-TetOne-Flag-FOXM1b lentivirus (231-Flag-FOXM1-Ind), doxycycline-induced
Text: Number of repetitions = 3. […] Number of repetitions = 3. […] Number of repetitions = 3. […] GAPDH was used as a loading control.

full-length FOXM1 = biological target: T2, full-length FOXM1 (Homo sapiens, UniProt Q08050); experiment: Biotin-peptide Pulldown with Streptavidin Magnetic Beads; assay type: binding; settings: biotin-labeled peptide, cell lysates (500 µg) with endogenous or exogenous FOXM1; Western Blotting
T2 sequence (Q08050 703-763 limits assumed): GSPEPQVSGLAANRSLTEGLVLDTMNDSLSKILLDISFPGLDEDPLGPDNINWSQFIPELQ
Protocol: as §1

[2] = biological target: T3, Flag-GFP-FOXM1(688–748) protein (Homo sapiens, UniProt Q08050); experiment: as above; assay type: binding; settings: biotin-labeled peptide, 293T cell lysates (500 µg) expressing Flag-GFP-FOXM1(688–748); Western Blotting
T3 construct: expressing exogenous Flag-GFP-FOXM1(688-748) protein; expressed in transfected cells; host or cells: 293T (HEK-293T) cell lysates
T3 sequence (Q08050 688-748 isoform Q08050-2): T2 sequence (Q08050 703-763 limits assumed)
Text: Fig. 1 Screening of TAT-106-126 peptide targeting FOXM1 protein. A An in silico peptide library (P1 to P24, 21-mer) was created from the FOXM1 N-terminus sequence (1-138aa) with a 5 amino acid shift window. The peptide candidates binding to FOXM1 C-terminus (PDB ID 6OSW) were selected by Rosetta FlexPepDock simulation and InterfaceAnalyzer calculation according to docking free energy (dG). B P20, P21, and P22 fused with the cell-penetrating TAT sequence (TAT-96-116, TAT-101-121, and TAT-106-126) were produced by solid-phase peptide synthesis. […] Data points indicated the fraction of GFP-M1(688–748)-bound peptides (ΔFNormal/Amplitude) at different concentrations and curves indicated the calculated fits. The error bars represented the standard error of three independent measurements. […] 48 h Later, trypan blue (0.4%) was added to each well for 3 min and the cells were fixed to 4% paraformaldehyde for imaging. […] The mean IC50 value (µM) for each peptide was obtained from three replicates. D The TAT-106-126 peptide was biotin-labeled and added to 293T cell lysates (500 µg) expressing exogenous Flag-GFP-FOXM1(688–748) protein. The lysates were incubated with Streptavidin magnetic beads to pull down biotin-peptide/protein complexes. Biotin and Flag-GFP-FOXM1(688–748) protein in samples were detected by Western Blotting. […] E Biotin-labeled TAT-106-126 or TAT was added to 293T cell lysates (500 µg). The lysates were incubated with Streptavidin magnetic beads to pull down biotin-peptide/protein complexes. Biotin and endogenous FOXM1 protein were detected by Western Blotting.
A Biotin-labeled peptides TAT-96-116, TAT-101-121, and TAT-106-126 were added to 293T cell lysates (500 µg) expressing exogenous Flag-GFP-FOXM1(688-748) protein (or Flag-GFP control lysates). The lysates were incubated with Streptavidin magnetic beads to pull down biotin-peptide/protein complexes. Biotin and Flag-GFP-FOXM1(688-748) protein in samples were detected by Western Blotting. […] Biotin and exogenous FOXM1 protein were detected by Western Blotting.

T1 sequence (Q08050 1-748 isoform Q08050-2): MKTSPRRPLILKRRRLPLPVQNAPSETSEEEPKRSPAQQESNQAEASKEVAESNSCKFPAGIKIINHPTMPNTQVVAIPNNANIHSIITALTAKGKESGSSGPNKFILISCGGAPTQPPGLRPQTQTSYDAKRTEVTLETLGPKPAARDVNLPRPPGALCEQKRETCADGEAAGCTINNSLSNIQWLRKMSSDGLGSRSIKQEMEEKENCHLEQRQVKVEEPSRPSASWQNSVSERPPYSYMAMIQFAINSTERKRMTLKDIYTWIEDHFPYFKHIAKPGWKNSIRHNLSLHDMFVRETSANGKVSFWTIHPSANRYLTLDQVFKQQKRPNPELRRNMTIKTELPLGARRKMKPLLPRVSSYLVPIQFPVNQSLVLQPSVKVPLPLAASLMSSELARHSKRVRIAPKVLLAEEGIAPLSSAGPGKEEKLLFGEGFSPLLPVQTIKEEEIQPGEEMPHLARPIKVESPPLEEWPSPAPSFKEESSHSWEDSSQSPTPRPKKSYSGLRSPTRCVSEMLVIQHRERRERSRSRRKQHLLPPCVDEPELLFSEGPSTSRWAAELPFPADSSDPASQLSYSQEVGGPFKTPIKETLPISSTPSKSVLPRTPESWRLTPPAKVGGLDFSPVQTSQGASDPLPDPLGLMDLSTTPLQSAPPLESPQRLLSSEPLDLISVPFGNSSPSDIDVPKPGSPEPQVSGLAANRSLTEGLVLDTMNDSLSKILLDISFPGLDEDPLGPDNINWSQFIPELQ

Sequence	Half-life in living MDA-MB-231 cells (MDA-MB-231 cells) [h]	interaction between FOXM1 and PLK1 (Co-IP) [1]	binding to full-length FOXM1 in Pulldown (full-length FOXM1)	binding to FOXM1 C-terminus in Pulldown [2]
GRKKRRQRRRFILISCGGAPTQPPGLRPQTQ [TAT-106-126]	6.2	comparable activity to M1-21	capable of binding	capable of binding
GRKKRRQRRRKESGSSGPNKFILISCGGAPT [TAT-96-116]			neither of them effectively bound	interacted
GRKKRRQRRRSGPNKFILISCGGAPTQPPGL [TAT-101-121]			neither of them effectively bound	interacted
